The values that follow come from ChEMBL document CHEMBL4680129, “Hit-to-lead optimization of novel 2-alkylaminomethylquinoline derivatives as anti-chagas agents” (Eur J Med Chem, 2020).

The subject of data set [1] is Trypanosoma cruzi. Put plainly: Antitrypanosomal activity against Trypanosoma cruzi epimastigotes measured after 72 hrs by Neubauer hemocytometer counting method. The data set is classed as functional, organism-based.
Data set [2] is described as follows: Selectivity index, ratio of CC50 African green monkey Vero cells to IC50 for Trypanosoma cruzi epimastigotes. The data set is classed as toxicity. As to conditions: read-out: Selectivity Index.
Data set [3] is described as follows: Selectivity index, ratio of CC50 African green monkey Vero cells to IC50 for Trypanosoma cruzi trypomastigotes. As to conditions: read-out: Selectivity Index. The class given is toxicity.
Data set [4] in a line: Cytotoxicity against African green monkey Vero cells assessed as reduction in cell viability measured after 24 hrs by MTT assay. The class given is cell-based. The note with it: chlorocebus sabaeus. For orientation: Tetrazolium dyes change colour on reduction, which living cells bring about.
The subject of data set [5] is Trypanosoma cruzi. The data set can be described thus: Antitrypanosomal activity against bloodstream Trypanosoma cruzi trypomastigotes measured after 24 hrs by Neubauer chamber method. The class given is functional, organism-based.
Data set [6] deals with Trypanosoma cruzi. Put plainly: Anti-chagasic activity against Trypanosoma cruzi trypomastigotes infected in C3H mouse assessed as increase in body weight at 10 mg/kg, po treated 10 days post infection measured on day 19 (reference value: -1.8%). As to conditions: time 9.0 day. The data set is classed as functional.
Data set [7] deals with Trypanosoma cruzi. The data set can be described thus: Anti-chagasic activity against Trypanosoma cruzi trypomastigotes infected in C3H mouse assessed as reduction in parasitemia at 50 mg/kg, po treated 10 days post infection for 7 consecutive days by Neubauer chamber counting method relative to control. The note with it: time 7.0 day. The class given is functional.
In data set [8] the test system is Trypanosoma cruzi. Put plainly: Anti-chagasic activity against Trypanosoma cruzi trypomastigotes infected in C3H mouse assessed as well-groomed fur and alert at 10 mg/kg, po treated 10 days post infection measured on day 19. The class given is functional, organism-based. As to conditions: time 9.0 day.
In data set [9] the test system is Trypanosoma cruzi. The data set can be described thus: Anti-chagasic activity against Trypanosoma cruzi trypomastigotes infected in C3H mouse assessed as physically healthy with shiny appearance at 10 mg/kg, po treated 10 days post infection measured on day 19. The class given is functional, organism-based. The note with it: time 9.0 day.
Data set [10] is described as follows: Toxicity in C3H mouse infected with Trypanosoma cruzi trypomastigotes assessed as mortality at 10 to 50 mg/kg, po treated 10 days post infection for 7 consecutive days. The class given is organism-based. As to conditions: in vivo, 168 h, dose 10-50 mg/kg, time 7 day.
In data set [11] the test system is Trypanosoma cruzi. The data set can be described thus: Anti-chagasic activity against Trypanosoma cruzi trypomastigotes infected in C3H mouse assessed as reduction in parasitemia at 10 mg/kg, po treated 10 days post infection for 7 consecutive days by Neubauer chamber counting method relative to control. The class given is functional. Set-up: scale not given: the % may be the effect or the level left. As to conditions: time 7 day.

Data set [12] can be described thus: Selectivity index, ratio of CC50 African green monkey Vero cells to IC50 for Trypanosoma cruzi amastigotes. The class given is toxicity. As to conditions: read-out: Selectivity Index.
The test system of data set [13] is Trypanosoma cruzi. The data set can be described thus: Antitrypanosomal activity against […] expressing beta-galactosidase infected in african green monkey VERO cells incubated for 5 days measured by microplate reader assay. The data set is classed as functional, organism-based. As to conditions: 120 h.
Data set [14] has as its system Trypanosoma cruzi. The data set can be described thus: Anti-chagasic activity against Trypanosoma cruzi trypomastigotes infected in C3H mouse assessed as active behaviour at 10 mg/kg, po treated 10 days post infection measured on day 19. The class given is functional, organism-based. As to conditions: time 9.0 day.

The IC50 is the concentration that gives 50% inhibition. In general, CC50 refers to the concentration at which the toxic effect on the cells reaches its halfway point.

Calls of active or inactive are those of the source. The calls are words filed in the database; no cut-off is given here.

As for `O=C(O)c1c(CN2CCN(CCO)CC2)nc2ccc(Cl)cc2c1-c1ccccc1`, the figures for the half-maximal inhibitory concentration (IC50) in the data set on Trypanosoma cruzi [1] and in the data set with Trypanosoma cruzi [5] were 4.2 µM and 56.1 µM, respectively. The figures for the selectivity ratio in [2] and in data set [3] were 8.6 and 0.6, respectively. Moreover, in data set [4], the CC50 at 24 h was 36 µM.
Regarding `O=C(Cn1ccnc1[N+](=O)[O-])NCc1ccccc1` [BENZNIDAZOLE], the IC50 turned out to be 5.8 µM in the data set with Trypanosoma cruzi [1], 3.6 µM with Trypanosoma cruzi [13] and 34.1 µM in the data set on Trypanosoma cruzi [5]. In addition, the outcome in the data set on Trypanosoma cruzi [6] and in the data set on Trypanosoma cruzi [7] was inactive. The results for the selectivity ratio in [2], in [3] and in [12] were 122, 20.7 and 196, respectively. Further, the result in the data set on Trypanosoma cruzi [8], in the data set on Trypanosoma cruzi [9] and in the data set with Trypanosoma cruzi [14] was Active. The CC50 at 24 h in [4] was found to be 706 µM. Moreover, the Activity result in data set [10] was “Non-Toxic”; in the data set on Trypanosoma cruzi [11] it was 58.9%.
Consider `O=C(O)c1c(CNCCN2CCOCC2)nc2ccc(Cl)cc2c1-c1ccccc1`, for which the IC50 was 11.2 µM in the data set on Trypanosoma cruzi [1] and 11.9 µM with Trypanosoma cruzi [5]. Further, the figures for the selectivity ratio in data set [2] and in data set [3] were 19.7 and 18.5, respectively. The CC50 at 24 h in data set [4] amounted to 221 µM.
